Data: patent US11230538B2, “Herbicides” (SYNGENTA PARTICIPATIONS AG, priority 2016, dated 2022)

How the values were obtained:
Type in all cases: in vivo
Avena fatua (AVEFA) [1] = assay: B2 Post-emergence herbicidal activity; details: post-emergence application, evaluated after 13 days
Procedure, shortened: (§1)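 Scores run from 0 for undamaged to 5 for fully killed plants, assessed 13 days post-spray. Application was post-emergence at 8 days of growth, using an acetone/water (50:50), 0.5% Tween 20 spray solution; growth at 24 °C day, 16 °C night, 65% humidity.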

Setaria fabenr (SETFA) = assay: B1 Pre-emergence herbicidal activity; design: key to Pre-emergence herbicidal activity, SETFA (damage score 0-5): 5=total damage to plant; 0=no damage to plant; details: pre-emergence application, evaluated after 13 days
Procedure, shortened: (§2)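 Test species received a pre-emergence application one day post-sowing in an acetone/water solution with 0.5% Tween 20. Phytotoxicity was assessed 13 days later on a scale where 0 means no damage and 5 total plant death.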

[2] = system: Echinochloa crus-galli (ECHCG); assay: B2 Post-emergence herbicidal activity; design: key to Post-emergence herbicidal activity, ECHCG (damage score 0-5): 5=total damage to plant; 0=no damage to plant; details: post-emergence application, evaluated after 13 days
Procedure, shortened: as §1

[3] = system: Echinochloa crus-galli (ECHCG); assay: B1 Pre-emergence herbicidal activity; design: key to Pre-emergence herbicidal activity, ECHCG (damage score 0-5): 5=total damage to plant; 0=no damage to plant; details: pre-emergence application, evaluated after 13 days
Procedure, shortened: as §2

Lolium perenne (LOLPE) [4] = assay: B2 Post-emergence herbicidal activity; design: key to Post-emergence herbicidal activity, LOLPE (damage score 0-5): 5=total damage to plant; 0=no damage to plant; details: post-emergence application, evaluated after 13 days
Procedure, shortened: as §1

Lolium perenne (LOLPE) [5] = assay: B1 Pre-emergence herbicidal activity; design: key to Pre-emergence herbicidal activity, LOLPE (damage score 0-5): 5=total damage to plant; 0=no damage to plant; details: pre-emergence application, evaluated after 13 days
Procedure, shortened: as §2

[6] = system: Triticum aestivium (TRZAW); assay: B1 Pre-emergence herbicidal activity; design: key: 5=total damage to plant; 0=no damage to plant; details: pre-emergence application, evaluated after 13 days
Procedure, shortened: as §2

Avena fatua (AVEFA) [7] = assay: B1 Pre-emergence herbicidal activity; design: key: 5=total damage to plant; 0=no damage to plant; details: pre-emergence application, evaluated after 13 days
Procedure, shortened: as §2

[8] = system: Alopecurus myosuroides (ALOMY); assay: B1 Pre-emergence herbicidal activity; design: key: 5=total damage to plant; 0=no damage to plant; details: pre-emergence application, evaluated after 13 days
Procedure, shortened: as §2

[9] = system: Triticum aestivium (TRZAW); assay: B2 Post-emergence herbicidal activity; design: key: 5=total damage to plant; 0=no damage to plant; details: post-emergence application, evaluated after 13 days
Procedure, shortened: as §1

[10] = system: Alopecurus myosuroides (ALOMY); assay: B2 Post-emergence herbicidal activity; design: key: 5=total damage to plant; 0=no damage to plant; details: post-emergence application, evaluated after 13 days
Procedure, shortened: as §1

Setaria fabenri (SETFA) = assay: B2 Post-emergence herbicidal activity; design: key: 5=total damage to plant; 0=no damage to plant; details: post-emergence application, evaluated after 13 days
Procedure, shortened: as §1

Row | Compound | Post-emergence herbicidal activity, AVEFA (damage score 0-5) (Avena fatua (AVEFA) [1]; rate 1000 g/ha) | Pre-emergence herbicidal activity, SETFA (damage score 0-5) (Setaria fabenr (SETFA); rate 1000 g/ha) | Post-emergence herbicidal activity, ECHCG (damage score 0-5) ([2]; rate 1000 g/ha) | Pre-emergence herbicidal activity, ECHCG (damage score 0-5) ([3]; rate 1000 g/ha) | Post-emergence herbicidal activity, LOLPE (damage score 0-5) (Lolium perenne (LOLPE) [4]; rate 1000 g/ha) | Pre-emergence herbicidal activity, LOLPE (damage score 0-5) (Lolium perenne (LOLPE) [5]; rate 1000 g/ha) | Pre-emergence herbicidal activity, TRAZW (damage score 0-5) ([6]; rate 1000 g/ha) | Pre-emergence herbicidal activity, AVEFA (damage score 0-5) (Avena fatua (AVEFA) [7]; rate 1000 g/ha) | Pre-emergence herbicidal activity, ALOMY (damage score 0-5) ([8]; rate 1000 g/ha) | Post-emergence herbicidal activity, TRAZW (damage score 0-5) ([9]; rate 1000 g/ha) | Post-emergence herbicidal activity, ALOMY (damage score 0-5) ([10]; rate 1000 g/ha) | Post-emergence herbicidal activity, SETFA (damage score 0-5) (Setaria fabenri (SETFA); rate 1000 g/ha) | further results
1 | COCCN(C(=O)C(C)C)c1ccc(-c2cncc(F)c2)nc1C(F)(F)F [Compound C85] | 2 | 2 | 4 | 2 | 1 | 0 | 0 | 0 | 0 | 1 | 0 | 4 | 
2 | C/C=C/C(=O)Nc1ccc(-c2cncc(F)c2)nc1C(F)(F)F [Compound C23] | 3 | 5 | 5 | 5 | 3 | 1 | 1 | 3 | 1 | 0 | 0 | 5 | 
3 | CCC(=O)Nc1ccc(-c2cncc(F)c2)nc1C#N [Compound C115] | 2 | 5 | 4 | 5 | 1 | 1 | 0 | 0 | 0 | 0 | 0 | 5 | 
4 | O=C(Nc1ccc(-c2cncc(F)c2)nc1C(F)(F)F)c1nccs1 [Compound C117] |  |  |  |  |  |  |  |  |  |  |  |  | Post-emergence herbicidal activity, AVEFA (damage score 0-5) (Avena fatua (AVEFA) [1]; rate 250 g/ha): 3; Pre-emergence herbicidal activity, SETFA (damage score 0-5) (Setaria fabenr (SETFA); rate 250 g/ha): 2; Post-emergence herbicidal activity, ECHCG (damage score 0-5) ([2]; rate 250 g/ha): 1; Pre-emergence herbicidal activity, ECHCG (damage score 0-5) ([3]; rate 250 g/ha): 1; Post-emergence herbicidal activity, LOLPE (damage score 0-5) (Lolium perenne (LOLPE) [4]; rate 250 g/ha): 1; Pre-emergence herbicidal activity, LOLPE (damage score 0-5) (Lolium perenne (LOLPE) [5]; rate 250 g/ha): 0; Pre-emergence herbicidal activity, TRAZW (damage score 0-5) ([6]; rate 250 g/ha): 0; Pre-emergence herbicidal activity, AVEFA (damage score 0-5) (Avena fatua (AVEFA) [7]; rate 250 g/ha): 0; Pre-emergence herbicidal activity, ALOMY (damage score 0-5) ([8]; rate 250 g/ha): 0; Post-emergence herbicidal activity, TRAZW (damage score 0-5) ([9]; rate 250 g/ha): 0; Post-emergence herbicidal activity, ALOMY (damage score 0-5) ([10]; rate 250 g/ha): 1; Post-emergence herbicidal activity, SETFA (damage score 0-5) (Setaria fabenri (SETFA); rate 250 g/ha): 4
5 | CC(=O)OC(C)(C)C(=O)Nc1ccc(-c2cncc(F)c2)nc1C(F)(F)F [Compound C36] | 2 | 4 | 5 | 4 | 1 | 1 | 0 | 1 | 0 | 1 | 0 | 5 | 
6 | CC(=O)Nc1ccc(-c2cncnc2)nc1C(F)(F)F [Compound C7] | 4 | 4 | 4 | 4 | 3 | 1 | 0 | 3 | 0 | 1 | 1 | 5 | 
7 | CC(C)C(=O)N(C)c1ccc(-c2cncc(F)c2)nc1C(F)(F)F [Compound C4, N-[6-(5-fluoro-3-pyridyl)-2-(trifluoromethyl)-3-pyridyl]-N,2-dimethyl-propanamide] | 4 | 1 | 4 | 4 | 5 | 5 | 0 | 1 | 0 | 1 | 1 | 3 | 
8 | O=C(Nc1ccc(-c2cncnc2)nc1C(F)(F)F)C1CC1 [Compound C109] | 3 | 4 | 5 | 4 | 2 | 1 | 0 | 2 | 0 | 1 | 0 | 5 | 
9 | O=CNc1ccc(-c2cncc(F)c2)nc1C(F)(F)F [Compound C112] | 3 | 4 | 4 | 3 | 3 | 1 | 0 | 2 | 1 | 1 | 0 | 1 | 
